The nature of assay [1]: Inhibition of bacterial type III secretion system in enteropathogenic Escherichia coli.
For assay [2], the system named is Escherichia coli. As to the kind of experiment: Antibacterial activity against enteropathogenic Escherichia coli. It is filed as functional, organism-based.

In brackets after ≈: the same amount, converted by molar mass.

For `C/C=C\C=C\[C@@H]1O[C@](O)([C@H](CC)C(=O)NC/C=C/C=C(\C)[C@@H](OC)[C@@H](C)[C@@H]2O[C@H](/C=C/C=C/C=C(\C)C(=O)c3c([O-])ccn(C)c3=O)[C@H](O)[C@@H]2O)[C@H](O)[C@H](O)C1(C)C.[Na+]`, the concentration for half-maximal inhibition (IC50) in assay [1] was determined as 2.29 µg/mL; in assay [2], 53.9 µg/mL.

For `C/C=C\C=C\[C@@H]1O[C@](O)([C@H](CC)C(=O)NC/C=C/C=C(\C)[C@@H](OC)[C@@H](C)[C@@H]2O[C@H](/C=C/C=C/C=C(\C)C(=O)c3c(OS(C)(=O)=O)ccn(C)c3=O)[C@H](O)[C@@H]2O)[C@H](O)[C@H](O)C1(C)C`, the IC50 was 4.65 µg/mL (≈ 5.23 µM) in assay [1] and greater than 100 µg/mL in assay [2].

In the case of `C/C=C\C=C\[C@@H]1O[C@](O)([C@H](CC)C(=O)NC/C=C/C=C(\C)[C@@H](OC)[C@@H](C)[C@@H]2O[C@H](/C=C/C=C/C=C(\C)C(=O)c3c([O-])ccn(C)c3=O)[C@H](O)[C@@H]2O)[C@H](O)[C@H](O)C1(C)C.[Li+]`, the IC50 in assay [1] stood at 2.52 µg/mL; in assay [2], 49.5 µg/mL.

As for `C/C=C\C=C\[C@@H]1O[C@](O)([C@H](CC)C(=O)NC/C=C/C=C(\C)[C@@H](OC)[C@@H](C)[C@@H]2O[C@H](/C=C/C=C/C=C(\C)C(=O)c3c(O)ccn(C)c3=O)[C@@H]3OC(=O)O[C@@H]32)[C@H](O)[C@H](O)C1(C)C`, the IC50 in assay [1] and in assay [2] was greater than 100 µg/mL in each case.

For the compound `C/C=C\C=C\[C@@H]1O[C@](O)([C@H](CC)C(=O)NC/C=C/C=C(\C)[C@@H](OC)[C@@H](C)[C@@H]2O[C@H](/C=C/C=C/C=C(\C)C(=O)c3c(OC(C)=O)ccn(C)c3=O)[C@H](O)[C@@H]2O)[C@H](O)[C@H](O)C1(C)C`, the results for the concentration for half-maximal inhibition (IC50) in assay [1] and in assay [2] were 1.43 µg/mL (≈ 1.68 µM) and 36.1 µg/mL (≈ 42.3 µM), respectively.

On to `C/C=C\C=C\[C@@H]1O[C@](O)([C@H](CC)C(=O)NC/C=C/C=C(\C)[C@@H](OC)[C@@H](C)[C@@H]2O[C@H](/C=C/C=C/C=C(\C)C(=O)c3c(O)ccn(C)c3=O)[C@@H]3OC(=O)O[C@@H]32)[C@@H]2OC(=O)O[C@@H]2C1(C)C`, for which the IC50 in assay [1] and in assay [2] was greater than 100 µg/mL in each case.

Regarding `CO[C@H](/C(C)=C/C=C/CN)[C@@H](C)[C@@H]1O[C@H](/C=C/C=C/C=C(\C)C(=O)c2c(O)ccn(C)c2=O)[C@H](O)[C@@H]1O`, the IC50 in assay [1] and in assay [2] was greater than 100 µg/mL throughout.

As to `C/C=C\C=C\[C@@H]1O[C@](O)([C@H](CC)C(=O)NC/C=C/C=C(\C)[C@@H](OC)[C@@H](C)[C@@H]2O[C@H](/C=C/C=C/C=C(\C)C(=O)c3c(O)ccn(C)c3=O)[C@H](O)[C@@H]2O)[C@H](O)[C@H](O)C1(C)C.[MgH2]`, the IC50 in assay [1] is 1.75 µg/mL; in assay [2], 30.6 µg/mL.

Regarding `C/C=C\C=C\[C@@H]1O[C@](O)([C@H](CC)C(=O)NC/C=C/C=C(\C)[C@@H](OC)[C@@H](C)[C@@H]2O[C@H](/C=C/C=C/C=C(\C)C(=O)c3c(OC(=O)c4ccccc4)ccn(C)c3=O)[C@H](O)[C@@H]2O)[C@H](O)[C@H](O)C1(C)C`, the results for the IC50 in assay [1] and in assay [2] were 1.45 µg/mL (≈ 1.58 µM) and greater than 100 µg/mL, respectively.

In the case of `C/C=C\C=C\[C@@H]1O[C@]2(O)C(CC)C(=O)O[C@@H]2[C@H](O)C1(C)C` (some centres not stated), the IC50 in assay [1] and in assay [2] was greater than 100 µg/mL each time.

Consider `C/C=C\C=C\[C@@H]1O[C@](O)([C@H](CC)C(=O)NC/C=C/C=C(\C)[C@@H](OC)[C@@H](C)[C@@H]2O[C@H](/C=C/C=C/C=C(\C)C(=O)c3c(OC(=O)CC)ccn(C)c3=O)[C@H](O)[C@@H]2O)[C@H](O)[C@H](O)C1(C)C`, for which the IC50 in assay [1] stood at 1.19 µg/mL (≈ 1.37 µM); in assay [2] it was 31.1 µg/mL (≈ 35.9 µM).

For the compound `C/C=C\C=C\[C@@H]1O[C@](O)([C@H](CC)C(=O)NC/C=C/C=C(\C)[C@@H](OC)[C@@H](C)[C@@H]2O[C@H](/C=C/C=C/C=C(\C)C(=O)c3c(OC)ccn(C)c3=O)[C@H](O)[C@@H]2O)[C@H](O)[C@H](O)C1(C)C`, the results for the IC50 in assay [1] and in assay [2] were 4.82 µg/mL (≈ 5.84 µM) and greater than 100 µg/mL, respectively.

Consider `C/C=C\C=C\[C@@H]1O[C@](O)([C@H](CC)C(=O)NC/C=C/C=C(\C)[C@@H](OC)[C@@H](C)[C@@H]2O[C@H](/C=C/C=C/C=C(\C)C(=O)c3c(OS(=O)(=O)c4ccc(C)cc4)ccn(C)c3=O)[C@H](O)[C@@H]2O)[C@H](O)[C@H](O)C1(C)C`, for which the IC50 in assay [1] was 19 µg/mL (≈ 19.7 µM); in assay [2] it was greater than 100 µg/mL.

`C/C=C\C=C\[C@@H]1O[C@](O)([C@H](CC)C(=O)NC/C=C/C=C(\C)[C@@H](OC)[C@@H](C)[C@@H]2O[C@H](/C=C/C=C/C=C(\C)C(=O)c3c(O)ccn(C)c3=O)[C@H](O)[C@@H]2O)[C@H](O)[C@H](O)C1(C)C`: the concentration for half-maximal inhibition (IC50) was determined as 1.42 µg/mL (≈ 1.75 µM) in assay [1] and 32.8 µg/mL (≈ 40.4 µM) in assay [2].

For `C/C=C\C=C\[C@@H]1O[C@](O)([C@H](CC)C(=O)NC/C=C/C=C(\C)[C@@H](OC)[C@@H](C)[C@@H]2O[C@H](/C=C/C=C/C=C(\C)C(=O)c3c(OCOC(N)=O)ccn(C)c3=O)[C@H](O)[C@@H]2O)[C@H](O)[C@H](O)C1(C)C`, the concentration for half-maximal inhibition (IC50) in assay [1] was 10.4 µg/mL (≈ 11.8 µM); in assay [2], greater than 100 µg/mL.

Turning to `C=CCOc1ccn(C)c(=O)c1C(=O)/C(C)=C/C=C/C=C/[C@H]1O[C@@H]([C@H](C)[C@H](OC)/C(C)=C/C=C/CNC(=O)[C@@H](CC)[C@@]2(O)O[C@@H](/C=C/C=C\C)C(C)(C)[C@@H](O)[C@H]2O)[C@@H](O)[C@H]1O`, the 50% inhibitory concentration (IC50) in assay [1] was 4.16 µg/mL (≈ 4.89 µM); in assay [2], greater than 100 µg/mL.
